Each block holds one compound with its values, some of them ahead of it.
Tests used:
His-PPARγ LBD = molecular target: T1, His-PPARγ LBD (Homo sapiens, UniProt P37231); format: biochemical; conditions: TRAP220 coactivator peptide
T1 sequence (P37231 203-477 isoform P37231-2): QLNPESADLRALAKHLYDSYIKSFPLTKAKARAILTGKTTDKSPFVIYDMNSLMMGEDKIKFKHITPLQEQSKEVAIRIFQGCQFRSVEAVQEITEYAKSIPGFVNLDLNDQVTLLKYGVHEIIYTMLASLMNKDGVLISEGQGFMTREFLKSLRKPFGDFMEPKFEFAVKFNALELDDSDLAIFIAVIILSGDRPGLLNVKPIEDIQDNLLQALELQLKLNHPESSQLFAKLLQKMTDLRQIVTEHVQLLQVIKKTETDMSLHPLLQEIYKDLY

[1] = limited use of MRL20 concentrations to 30 μM in assays; cited from earlier work
full-length PPARγ = molecular target: T2, full-length PPARγ (Homo sapiens, UniProt P37231); test: Full-length PPARγ/5xPPRE-luciferase reporter assay in HEK293T cells; format: cell-based; conditions: covalent analog ± 5 μM MRL20
T2 sequence (P37231 1-505): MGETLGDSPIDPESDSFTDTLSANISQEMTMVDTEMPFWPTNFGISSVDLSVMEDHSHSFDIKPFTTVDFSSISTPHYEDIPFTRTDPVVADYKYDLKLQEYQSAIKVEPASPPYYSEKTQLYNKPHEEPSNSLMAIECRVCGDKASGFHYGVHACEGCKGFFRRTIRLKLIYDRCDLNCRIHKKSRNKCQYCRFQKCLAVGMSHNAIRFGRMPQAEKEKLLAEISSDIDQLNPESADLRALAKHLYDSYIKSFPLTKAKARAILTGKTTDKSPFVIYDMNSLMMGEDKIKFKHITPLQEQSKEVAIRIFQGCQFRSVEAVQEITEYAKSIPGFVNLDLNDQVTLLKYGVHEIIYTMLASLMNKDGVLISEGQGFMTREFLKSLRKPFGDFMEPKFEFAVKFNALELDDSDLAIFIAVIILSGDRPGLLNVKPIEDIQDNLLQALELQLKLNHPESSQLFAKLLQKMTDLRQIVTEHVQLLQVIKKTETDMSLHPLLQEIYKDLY

TR-FRET response to rosiglitazone with covalent antagonist-bound PPARγ LBD (His-PPARγ LBD; rosiglitazone titration, endpoint 300 μM): lower but not blocked
SMILES: O=C(Nc1ccccc1)c1cc([N+](=O)[O-])ccc1Cl [GW9662]

SMILES: COc1ccc(C(=O)n2c(C)c(Cc3ccccc3O[C@@H](C)C(=O)O)c3cc(OC(F)(F)F)ccc32)cc1 [MRL20]
Solubility [1]: solubility issues

SMILES: COc1ccc2nccc(NC(=O)c3cc([N+](=O)[O-])ccc3Cl)c2c1 [compound 22]
Effect of covalent antagonist on binding of DHA to PPARγ (His-PPARγ LBD; DHA dose response and 30 μM endpoint): reduced binding of DHA to PPARγ better than GW9662 and T0070907
Inhibition of allosteric activation of full-length PPARγ by MRL20 (full-length PPARγ): inhibition of allosteric PPARγ activation

Reference: publication PMC5652320 (ACS chemical biology, 2017)
